From patent publication US7291469B2, “Mutant met and uses therefor” (The Regents of the University of California, priority 2004, dated 2007)

Experiments:
Met gene expression = Met gene expression by semi-quantitative RT-PCR under hypoxia mimic; type: cell-based; details: two canine OSA cell lines
Excerpt: To evaluate the effects of hypoxia on Met gene expression, we cultured two different canine OSA cell lines in the presence of cobalt chloride, an agent that mimics hypoxia. […] Given the substantial data indicating a role of Met in a variety of human cancers, it is likely that dysregulation of Met will play a similar role in canine cancers.

Gab-1, Erk1/2, and Akt = experiment: Phosphorylation of downstream signal transduction components Gab-1, Erk1/2 and Akt after rhHGF stimulation; type: cell-based, canine
Excerpt: The activation of downstream signal transduction components Gab-1, Erk1/2, and Akt were then examined. […] It is possible that in these cases, other growth factor pathways contribute to this high level of basal phosphorylation.

[1] = test system: NIH-3T3 cells stably transfected with canine Met constructs; experiment: Gap migration assay in NIH-3T3 cells stably transfected with canine Met constructs; type: cell-based; details: R988C, M1251T, D544N, G966S Met lines; 50 ng/ml; 24 hours
Protocol: Cells were allowed to grow to confluence in tissue culture, then defects were created manually to create a “gap” in the cells. The cells were then left in medium alone or treated with recombinant human HGF (rhHGF) at 50 ng/ml. Cells were also treated with a Met inhibitor in the absence or presence of rhHGF. Cultures were evaluated 24 hours later by staining the cells with crystal violet and digital imaging.

canine Met = experiment: Met phosphorylation in canine tumor cell lines after rhHGF stimulation; type: cell-based
Protocol: It is possible that this mutation results in the basal phosphorylation of Met in this cell line.
To determine whether HGF stimulation of canine Met induces appropriate Met autophosphorylation and downstream signal transduction, Met expressing tumor cell lines were treated with recombinant human HGF and the phosphorylation of Met on several specific tyrosines as well as phosphorylation of downstream signaling components were evaluated. […] It was then necessary to determine whether all critical tyrosine residues were phosphorylated after rhHGF exposure, as it was possible that the recombinant human protein was only inducing partial or incomplete signal transduction. […] Although this could be attributed to autocrine HGF and HGFA production, the D17 cell line also has the D544N mutation.

canine OSA cells = experiment: Scattering and migration of canine OSA cells under growth factor deprivation with HGF; type: cell-based; details: medium without fetal bovine serum, HGF added
Excerpt: To evaluate the ability of OSA cells to scatter and migrate, we cultured cells in medium containing fetal bovine serum or no fetal bovine serum (stressful condition), then stimulated with HGF. The OSA cells began to show evidence of morphology change (scattering) upon growth factor deprivation.

canine Met, sequence (Q75ZY9 25-308 limits assumed): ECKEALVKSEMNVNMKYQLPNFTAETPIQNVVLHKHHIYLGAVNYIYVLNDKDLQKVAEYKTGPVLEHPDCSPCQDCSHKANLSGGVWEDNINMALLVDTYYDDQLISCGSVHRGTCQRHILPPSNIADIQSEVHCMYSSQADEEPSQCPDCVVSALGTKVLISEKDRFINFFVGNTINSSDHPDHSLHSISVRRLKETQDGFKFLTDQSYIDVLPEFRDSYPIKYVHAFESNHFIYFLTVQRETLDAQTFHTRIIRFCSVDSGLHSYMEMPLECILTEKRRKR
canine Met, sequence (Q75ZY9 309-516 limits assumed): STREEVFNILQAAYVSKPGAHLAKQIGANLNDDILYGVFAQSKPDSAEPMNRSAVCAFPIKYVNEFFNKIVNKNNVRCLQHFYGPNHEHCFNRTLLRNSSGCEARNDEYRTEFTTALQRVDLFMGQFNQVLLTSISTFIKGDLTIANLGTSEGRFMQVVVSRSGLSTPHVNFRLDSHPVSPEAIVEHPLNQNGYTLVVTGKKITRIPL

Compound | Met gene expression (Met gene expression) | Erk and Akt phosphorylation (Gab-1, Erk1/2, and Akt; Mel 3 and Mel 8 cell lines) | Gab-1 phosphorylation (Gab-1, Erk1/2, and Akt; each of the canine cell lines tested) | migration compared to NIH-3T3 expressing wild-type Met [1] | phosphorylation of Met tyrosines 1003, 1230/34/35, 1349 and 1365 (canine Met; OSA8 canine OSA cell line) | concentration of maximal stimulation of Met phosphorylation (canine Met; canine OSA cell lines) [ng/mL] | phosphorylation of canine Met (canine Met; canine OSA cell lines) | morphology change (scattering) (canine OSA cells)
[Cl][Co][Cl] [cobalt chloride] | upregulation of Met gene expression |  |  |  |  |  |  | 
rhHGF: recombinant human hepatocyte growth factor, the ligand for Met |  | inducible Erk and Akt phosphorylation | Gab-1 was phosphorylated | markedly increased | all phosphorylated appropriately | 50 | induced phosphorylation of canine Met in all cell lines tested in a dose dependent fashion | further enhanced
